Holding throughout (assay type): in vivo
In series [1] the test system is Cabbage Looper (Trichoplusia ni, TRIPNI). As to the kind of experiment: Bioassays on Cabbage Looper (CL), 128-well diet tray assay. The note with it: Trichoplusia ni. Summed up:
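Second-instar larvae (1–5 per well) placed on artificial diet surface-treated with 50 μg/cm^2 test molecule applied in 90:10 acetone-water and dried. Held at 25° C., 14:10 light-dark, for five to seven days. Percent mortality scored per well and averaged over eight wells.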

Series [2] concerns Beet Armyworm (Spodoptera exigua, LAPHEG). As to the kind of experiment: Bioassays on Beet Armyworm (BAW), 128-well diet tray assay. The note with it: Spodoptera exigua. Summed up:
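Test molecule was dissolved in 90:10 acetone-water and applied at 50 μg/cm^2 onto artificial diet in eight wells, then dried. Second instar larvae, one to five per well, were added, and trays were kept vented at 25° C. with a 14:10 photoperiod for five to seven days before mortality was recorded.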

Series [3] deals with Yellow Fever Mosquito (Aedes aegypti, AEDSAE). The conditions noted are these: for YFM rating: Table ABC / ABC-DP rating. In outline:
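Compounds from DMSO master plates (4000 ppm stock) diluted in 90:10 water/acetone, then dispensed into six replicate plates and infested with ~1-day-old Aedes aegypti larvae in liver-powder water. Held covered at room temperature for 3 days; each well scored for larval mortality and graded on a rating scale.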

[4] abbreviates: Cabbage Looper, Table ABC / ABC-DP rating, read-out: CL rating.
Setting [5] is: Beet Armyworm, Table ABC / ABC-DP rating, read-out: BAW rating.
Setting [6] is: Table ABC: Biological Results, species CL, read-out: CL.
Where [7] appears, read: Table ABC: Biological Results, species BAW, read-out: BAW.
[8] abbreviates: Table ABC: Biological Results, species YFM.

The structures appear in SMILES notation. Like-named read-outs stand apart in the source and are kept apart here.

One may read the mortality as the percentage killed.

For `CC(=O)NNC(=O)c1cc(NC(=O)[C@H]2[C@H](c3cc(Cl)cc(Cl)c3)C2(Cl)Cl)ccc1Cl` (relative stereo) [F2514, trans-N-(3-(2-acetylhydrazine-1-carbonyl)-4-chlorophenyl)-2,2-dichloro-3-(3,5-dichlorophenyl)cyclopropane-1-carboxamide], the pest or weed control at 50 µg/cm2 in series [1] (setting [4]) and in series [2] (setting [5]) was 50 to 100% each time. Also, the YFM rating entry in series [3] (Yellow Fever Mosquito) is listed as “A (80–100)”.
On to `Nc1c(F)ccc(NC(=O)c2cc(NC(=O)[C@H]3[C@H](c4ccc(Br)c(C(F)(F)F)c4)C3(Cl)Cl)ccc2Cl)c1F` (relative stereo) [F1116, trans-N-(3-Amino-2,4-difluorophenyl)-5-(3-(4-bromo-3-(trifluoromethyl)phenyl)-2,2-dichlorocyclopropane-1-carboxamido)-2-chlorobenzamide], for which the pest or weed control at 50 µg/cm2 in series [1] (setting [6]) and in series [2] (setting [7]) was 50 to 100% throughout. Also, the YFM entry in series [3] (setting [8]) is “A (80–100)”.
Regarding `O=C(NCC(F)(F)c1ccccc1)c1cc(NC(=O)[C@H]2[C@H](c3cc(Cl)cc(Cl)c3)C2(Cl)Cl)cc(F)c1Cl` (relative stereo) [F2091, trans-2-Chloro-5-(2,2-dichloro-3-(3,5-dichlorophenyl)cyclopropane-1-carboxamido)-N-(2,2-difluoro-2-phenylethyl)-3-fluorobenzamide], the pest or weed control at 50 µg/cm2 in series [1] (setting [4]) and in series [2] (setting [5]) was 50 to 100% each time. Moreover, in series [3] (Yellow Fever Mosquito), the YFM rating entry is listed as “A (80–100)”.
For `O=C(CCC(F)(F)C(F)(F)F)Nc1c(F)ccc(NC(=O)c2cc(NC(=O)[C@H]3[C@H](c4ccc(F)c(C(F)(F)F)c4)C3(Cl)Cl)ccc2Cl)c1F` [F1844, 2-Chloro-5-((1R,3R)-2,2-dichloro-3-(4-fluoro-3-(trifluoromethyl)phenyl)cyclopropane-1-carboxamido)-N-(2,4-difluoro-3-(4,4,5,5,5-pentafluoropentanamido)phenyl)benzamide], the pest or weed control at 50 µg/cm2 in series [1] (setting [4]) and in series [2] (setting [5]) was 50 to 100% throughout. In addition, in series [3] (Yellow Fever Mosquito), the YFM rating result was “A (80–100)”.
Regarding `Cc1cc(NC(=O)[C@H]2[C@H](c3ccc(F)c(Cl)c3)C2(Cl)Cl)cc(C(=O)Nc2ccc(F)cc2)c1Cl` (relative stereo) [F1184, trans-2-Chloro-5-(2,2-dichloro-3-(3-chloro-4-fluorophenyl)cyclopropane-1-carboxamido)-N-(4-fluorophenyl)-3-methylbenzamide], the pest or weed control at 50 µg/cm2 in series [1] (setting [6]) and in series [2] (setting [7]) was 50 to 100% each time. The YFM entry in series [3] (setting [8]) is “A (80–100)”.
Turning to `Cc1c(N)cccc1NC(=O)c1cc(NC(=O)[C@H]2[C@H](c3ccc(F)c(C(F)(F)F)c3)C2(Cl)Cl)ccc1Cl` [F1448, N-(3-Amino-2-methylphenyl)-2-chloro-5-((1R,3R)-2,2-dichloro-3-(4-fluoro-3-(trifluoromethyl)phenyl)cyclopropane-1-carboxamido)benzamide], the pest or weed control at 50 µg/cm2 in series [1] (Cabbage Looper, rating class, read-out: CL) was in the range of 50 to 100%; in series [2] (Beet Armyworm, rating class, read-out: BAW), 50 to 100%. The YFM result in series [3] (Yellow Fever Mosquito, rating class) was “A (80–100)”.
`CN(C(=O)c1cc(NC(=O)[C@H]2[C@H](c3cc(Cl)cc(Cl)c3)C2(Cl)Cl)ccc1C#N)c1ccc(F)cc1F` (relative stereo) [F1039, trans-2-Cyano-5-(2,2-dichloro-3-(3,5-dichlorophenyl)cyclopropane-1-carboxamido)-N-(2,4-difluorophenyl)-N-methylbenzamide]: the pest or weed control at 50 µg/cm2 in series [1] (setting [6]) and in series [2] (setting [7]) was 50 to 100% in each case. Further, the YFM entry in series [3] (setting [8]) is listed as “A (80–100)”.
`O=C(Nc1ccc(F)c(NC(=O)C(F)(F)C(F)(F)C(F)(F)F)c1F)c1cc(NC(=O)[C@H]2[C@H](c3cc(C(F)(F)F)cc(C(F)(F)F)c3)C2(Cl)Cl)ccc1Cl` (relative stereo) [F1825, trans-5-(3-(3,5-bis(Trifluoromethyl)phenyl)-2,2-dichlorocyclopropane-1-carboxamido)-2-chloro-N-(2,4-difluoro-3-(2,2,3,3,4,4,4-heptafluorobutanamido)phenyl)benzamide]: the pest or weed control at 50 µg/cm2 in series [1] (setting [4]) and in series [2] (setting [5]) was 50 to 100% each time. Further, the YFM rating result in series [3] (Yellow Fever Mosquito) is “A (80–100)”.
On to `N#Cc1ccc(NNC(=O)c2cc(NC(=O)[C@H]3[C@H](c4cc(Cl)cc(Cl)c4)C3(Cl)Cl)ccc2Cl)cc1` (relative stereo) [F2554, trans-2,2-Dichloro-N-(4-chloro-3-(2-(4-cyanophenyl)hydrazine-1-carbonyl)phenyl)-3-(3,5-dichlorophenyl)cyclopropane-1-carboxamide], for which the pest or weed control at 50 µg/cm2 in series [1] (setting [4]) and in series [2] (setting [5]) was 50 to 100% throughout. In addition, the YFM rating result in series [3] (Yellow Fever Mosquito) is listed as “A (80–100)”.
For the molecule `CC(F)(F)CCC(=O)Nc1c(F)ccc(NC(=O)c2cc(NC(=O)[C@H]3[C@H](c4ccc(F)c(C(F)(F)F)c4)C3(Cl)Cl)ccc2Cl)c1F` [F1843, 2-Chloro-5-((1R,3R)-2,2-dichloro-3-(4-fluoro-3-(trifluoromethyl)phenyl)cyclopropane-1-carboxamido)-N-(3-(4,4-difluoropentanamido)-2,4-difluorophenyl)benzamide], the pest or weed control at 50 µg/cm2 in series [1] (setting [4]) and in series [2] (setting [5]) was 50 to 100% in each case. The YFM rating entry in series [3] (Yellow Fever Mosquito) is recorded as “A (80–100)”.
Take `C=C(F)c1cc(F)ccc1NC(=O)c1cc(NC(=O)[C@H]2[C@H](c3cc(Cl)cc(Cl)c3)C2(Cl)Cl)ccc1Cl` (relative stereo) [F1319, trans-2-Chloro-5-(2,2-dichloro-3-(3,5-dichlorophenyl)cyclopropane-1-carboxamido)-N-(4-fluoro-2-(1-fluorovinyl)phenyl)benzamide]: the pest or weed control at 50 µg/cm2 in series [1] (setting [6]) and in series [2] (setting [7]) was 50 to 100% throughout. Also, the YFM result in series [3] (setting [8]) is listed as “A (80–100)”.
On to `CC(C)=NNC(=O)c1cc(NC(=O)[C@H]2[C@H](c3cc(Cl)cc(Cl)c3)C2(Cl)Cl)ccc1Cl` (relative stereo) [F3010, trans-2,2-Dichloro-N-(4-chloro-3-(2-(propan-2-ylidene)hydrazine-1-carbonyl)phenyl)-3-(3,5-dichlorophenyl)cyclopropane-1-carboxamide], for which the mortality at 50 µg/cm2 in series [1] (168 h, second instar larvae, 50 μg/cm^2 of test molecule on artificial diet, 25° C., five to seven days, average of eight wells, read-out: CL % Control (or Mortality) rating) is 50 to 100%; in series [2] (168 h, second instar larvae, 50 μg/cm^2 of test molecule on artificial diet, 25° C., five to seven days, average of eight wells, read-out: BAW % Control (or Mortality) rating) it was 50 to 100%. Besides, the pest or weed control at 50 µg/cm2 in series [1] (setting [4]) and in series [2] (setting [5]) was 50 to 100% each time. The YFM rating entry in series [3] (Yellow Fever Mosquito) is recorded as “A (80–100)”. Further, the “YFM % Control (or Mortality) rating” value in series [3] (about 1 day-old larvae, 4000 ppm master solution diluted with 90:10 water/acetone, 15 μL per well plus 220 μL larval mixture, 3 days, mortality) is given as “A (80–100)”.
`CCCN(C(=O)CC#N)c1c(F)ccc(NC(=O)c2cc(NC(=O)[C@H]3[C@H](c4ccc(F)c(C(F)(F)F)c4)C3(Cl)Cl)ccc2Cl)c1F` [F1841, 2-Chloro-N-(3-(2-cyano-N-propylacetamido)-2,4-difluorophenyl)-5-((1R,3R)-2,2-dichloro-3-(4-fluoro-3-(trifluoromethyl)phenyl)cyclopropane-1-carboxamido)benzamide]: the pest or weed control at 50 µg/cm2 in series [1] (setting [4]) and in series [2] (setting [5]) was 50 to 100% in each case. Besides, in series [3] (Yellow Fever Mosquito), the YFM rating result is on record as “A (80–100)”.
Consider `CC(=O)Nc1ccc(NC(=O)c2cc(NC(=O)[C@H]3[C@H](c4ccc(F)c(Cl)c4)C3(Cl)Cl)cc(Cl)c2C)cc1` (relative stereo) [F1191, trans-N-(4-Acetamidophenyl)-3-chloro-5-(2,2-dichloro-3-(3-chloro-4-fluorophenyl)cyclopropane-1-carboxamido)-2-methylbenzamide], for which the pest or weed control at 50 µg/cm2 in series [1] (setting [6]) and in series [2] (setting [7]) was 50 to 100% throughout. Further, the YFM result in series [3] (setting [8]) is listed as “A (80–100)”.
For the molecule `O=C(NNc1ccc(F)cc1F)c1cc(NC(=O)[C@H]2[C@H](c3cc(Cl)cc(Cl)c3)C2(Cl)Cl)ccc1Cl` (relative stereo) [F2559, trans-2,2-Dichloro-N-(4-chloro-3-(2-(2,4-difluorophenyl)hydrazine-1-carbonyl)phenyl)-3-(3,5-dichlorophenyl)cyclopropane-1-carboxamide], the pest or weed control at 50 µg/cm2 in series [1] (setting [4]) and in series [2] (setting [5]) was 50 to 100% throughout. The YFM rating result in series [3] (Yellow Fever Mosquito) is reported as “B (More than 0 – Less than 80)”.
Take `CC1(C(=O)Nc2c(F)ccc(NC(=O)c3cc(NC(=O)[C@H]4[C@H](c5ccc(F)c(C(F)(F)F)c5)C4(Cl)Cl)ccc3Cl)c2F)CC1(Cl)Cl` (stereo partly drawn) [F1273, 2-Chloro-N-(3-(2,2-dichloro-1-methylcyclopropane-1-carboxamido)-2,4-difluorophenyl)-5-((1R,3R)-2,2-dichloro-3-(4-fluoro-3-(trifluoromethyl)phenyl)cyclopropane-1-carboxamido)benzamide]: the pest or weed control at 50 µg/cm2 in series [1] (setting [6]) and in series [2] (setting [7]) was 50 to 100% throughout. Further, in series [3] (setting [8]), the YFM entry is “A (80–100)”.
